Experimental data published in PMC11079024, “Identification of a family of species-selective complex I inhibitors as potential anthelmintics” (Nature Communications, 2024).
“And” between values parts separate entries of the source, which are not always exact repeats. Equal entries are not always repeated. Where two headings read alike, the source gives them in different places.

Experiments:
[1] = test system: C. elegans complex III (decylubiquinol-cytochrome C reductase); experiment: In vitro complex III activity assay, C. elegans mitochondria; format: biochemical, Caenorhabditis elegans; details: for CIII Activity: 100 μM inhibitor, in vitro activity relative to solvent control, N2 C. elegans mitochondria
In short: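 Mitochondria were isolated from adult C. elegans by bead-beating and differential centrifugation, then used at 0.2 mg/mL protein. Antimycin A-sensitive complex III activity was followed as decylubiquinol-driven cytochrome C reduction at 550 nm every 30 s for 15 min. Initial linear slopes were expressed as percent of solvent control.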

[2] = target: C. elegans complex II (succinate dehydrogenase) (Caenorhabditis elegans, UniProt O62215+P41956+Q09545); experiment: In vitro complex II activity assay, C. elegans mitochondria; format: biochemical; details: for IC50: wild-type (N2) mitochondria
C. elegans complex II (succinate dehydrogenase), sequence (P41956 30-182): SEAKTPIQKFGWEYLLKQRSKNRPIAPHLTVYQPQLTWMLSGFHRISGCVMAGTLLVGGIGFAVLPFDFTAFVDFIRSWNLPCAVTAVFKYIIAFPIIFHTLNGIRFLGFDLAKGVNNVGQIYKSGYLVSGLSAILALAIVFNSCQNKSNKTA
C. elegans complex II (succinate dehydrogenase), sequence (Q09545 22-298): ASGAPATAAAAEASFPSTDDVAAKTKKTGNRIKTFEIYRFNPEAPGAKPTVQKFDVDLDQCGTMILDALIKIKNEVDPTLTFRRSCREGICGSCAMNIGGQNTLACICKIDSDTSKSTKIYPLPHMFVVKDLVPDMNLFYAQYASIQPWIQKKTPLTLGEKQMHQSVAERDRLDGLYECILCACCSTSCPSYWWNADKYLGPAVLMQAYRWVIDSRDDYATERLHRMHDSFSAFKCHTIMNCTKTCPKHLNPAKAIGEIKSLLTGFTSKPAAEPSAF
C. elegans complex II (succinate dehydrogenase), sequence (Q09508 32-646, further chain): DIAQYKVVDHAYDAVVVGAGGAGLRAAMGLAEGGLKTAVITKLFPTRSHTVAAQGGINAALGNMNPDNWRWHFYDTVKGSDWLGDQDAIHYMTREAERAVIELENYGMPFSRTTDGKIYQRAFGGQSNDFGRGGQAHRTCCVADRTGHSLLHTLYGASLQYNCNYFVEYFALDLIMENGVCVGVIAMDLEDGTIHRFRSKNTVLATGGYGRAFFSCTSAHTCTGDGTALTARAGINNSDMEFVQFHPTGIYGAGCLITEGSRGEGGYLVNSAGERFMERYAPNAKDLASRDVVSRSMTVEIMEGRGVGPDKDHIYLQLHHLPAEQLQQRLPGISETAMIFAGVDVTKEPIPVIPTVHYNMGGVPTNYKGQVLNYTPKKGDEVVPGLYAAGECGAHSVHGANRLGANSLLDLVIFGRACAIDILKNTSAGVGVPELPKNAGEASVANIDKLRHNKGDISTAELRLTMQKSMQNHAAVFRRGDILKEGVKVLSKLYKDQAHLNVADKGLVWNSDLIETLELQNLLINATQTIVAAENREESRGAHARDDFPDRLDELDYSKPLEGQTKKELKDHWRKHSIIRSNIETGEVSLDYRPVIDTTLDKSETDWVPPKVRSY
C. elegans complex II (succinate dehydrogenase), sequence (O62215 31-145): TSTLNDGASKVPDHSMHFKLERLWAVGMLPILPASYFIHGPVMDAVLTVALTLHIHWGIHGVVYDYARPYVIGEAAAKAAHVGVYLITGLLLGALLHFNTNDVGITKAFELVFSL
In short: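 Mitochondria isolated from adult C. elegans were diluted to 0.2 mg/mL protein and assayed for complex II by the DCIP-coupled method. A600 was read every 30 s over 15 min, with initial linear slope expressed as percent of solvent control. Screening was at 100 μM (≥3 biological replicates), followed by dose-response.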

[3] = 100 µM compound, relative to solvent control, mean (SEM)
[4] = 100 μM of NPD compound, C. elegans mitochondria, individual biological replicates
[5] = 100 μM of NPD compound, C. elegans mitochondria, mean of four biological replicates
[6] = dose 0.0001 µM, individual replicates, wild-type C. elegans
[7] = dose 0.0005 µM, individual replicates, wild-type C. elegans
[8] = dose 0.001 µM, individual replicates, wild-type C. elegans
[9] = dose 0.0025 µM, individual replicates, wild-type C. elegans
[10] = dose 0.005 µM, individual replicates, wild-type C. elegans
[11] = dose 0.013 µM, individual replicates, wild-type C. elegans
[12] = dose 0.025 µM, individual replicates, wild-type C. elegans
[13] = dose 0.063 µM, individual replicates, wild-type C. elegans
[14] = dose 0.125 µM, individual replicates, wild-type C. elegans
[15] = dose 0.313 µM, individual replicates, wild-type C. elegans
[16] = dose 0.625 µM, individual replicates, wild-type C. elegans
[17] = dose 1.5 µM, individual replicates, wild-type C. elegans
[18] = dose 3 µM, individual replicates, wild-type C. elegans
[19] = dose 15 µM, individual replicates, wild-type C. elegans
[20] = dose 75 µM, individual replicates, wild-type C. elegans

O=C(NCCc1ccc(Cl)cc1)c1ccccc1C(F)(F)F [Wact-11]
% Activity Complex III [1, 3]: 90.97 (1.75) %
CIII Activity ([1]; Mean): 90.970%
CIII Activity ([1]; single replicate): 83.802% and 95.824% and 97.988% and 86.268%
Percent in vitro activity, Complex III (single replicate Rep1-Rep4) [1, 4]: 83.802% and 95.824% and 97.988% and 86.268%
Percent in vitro activity, Complex III (Mean) [1, 5]: 90.970%
% Activity Complex II [2, 3]: 24.43 (0.62) %
CII Activity ([2]; 100 μM inhibitor, in vitro activity relative to solvent control, N2 C. elegans mitochondria, Mean): 24.430%
Percent in vitro activity, Complex II (single replicate Rep1-Rep4) [2, 4]: 25.363% and 20.777% and 26.220%
Percent in vitro activity, Complex II (Mean) [2, 5]: 24.431%
percent (%) in vitro complex II activity relative to solvent control ([2]; dose 0.0001 µM, Mean of replicates, wild-type C. elegans): 94.900%
percent (%) in vitro complex II activity relative to solvent control [2, 6]: 104.455% and 86.022% and 94.224%
percent (%) in vitro complex II activity relative to solvent control ([2]; dose 0.0005 µM, Mean of replicates, wild-type C. elegans): 92.990%
percent (%) in vitro complex II activity relative to solvent control [2, 7]: 105.223% and 78.802% and 94.946%
percent (%) in vitro complex II activity relative to solvent control ([2]; dose 0.001 µM, Mean of replicates, wild-type C. elegans): 95.541%
percent (%) in vitro complex II activity relative to solvent control [2, 8]: 97.389% and 94.470% and 94.765%
percent (%) in vitro complex II activity relative to solvent control ([2]; dose 0.0025 µM, Mean of replicates, wild-type C. elegans): 86.830%
percent (%) in vitro complex II activity relative to solvent control [2, 9]: 88.172% and 83.871% and 88.448%
percent (%) in vitro complex II activity relative to solvent control ([2]; dose 0.005 µM, Mean of replicates, wild-type C. elegans): 71.382%
percent (%) in vitro complex II activity relative to solvent control [2, 10]: 74.194% and 66.667% and 73.285%
percent (%) in vitro complex II activity relative to solvent control ([2]; dose 0.013 µM, Mean of replicates, wild-type C. elegans): 42.140%
percent (%) in vitro complex II activity relative to solvent control [2, 11]: 41.167% and 38.863% and 46.390%
percent (%) in vitro complex II activity relative to solvent control ([2]; dose 0.025 µM, Mean of replicates, wild-type C. elegans): 24.327%
percent (%) in vitro complex II activity relative to solvent control [2, 12]: 28.111% and 21.045% and 23.827%
percent (%) in vitro complex II activity relative to solvent control ([2]; dose 0.063 µM, Mean of replicates, wild-type C. elegans): 7.305%
percent (%) in vitro complex II activity relative to solvent control [2, 13]: 6.298% and 1.536% and 14.079%
percent (%) in vitro complex II activity relative to solvent control ([2]; dose 0.125 µM, Mean of replicates, wild-type C. elegans): 1.918%
percent (%) in vitro complex II activity relative to solvent control [2, 14]: 3.226% and 0.000% and 2.527%
percent (%) in vitro complex II activity relative to solvent control ([2]; dose 0.313 µM, Mean of replicates, wild-type C. elegans): 0.000%
percent (%) in vitro complex II activity relative to solvent control [2, 15]: 0.000%
percent (%) in vitro complex II activity relative to solvent control ([2]; dose 0.625 µM, Mean of replicates, wild-type C. elegans): 2.509%
percent (%) in vitro complex II activity relative to solvent control [2, 16]: 0.000% and 7.527%
percent (%) in vitro complex II activity relative to solvent control ([2]; dose 1.5 µM, Mean of replicates, wild-type C. elegans): 0.000%
percent (%) in vitro complex II activity relative to solvent control [2, 17]: 0.000%
percent (%) in vitro complex II activity relative to solvent control ([2]; dose 3 µM, Mean of replicates, wild-type C. elegans): 0.717%
percent (%) in vitro complex II activity relative to solvent control [2, 18]: 0.000% and 2.151%
percent (%) in vitro complex II activity relative to solvent control ([2]; dose 15 µM, Mean of replicates, wild-type C. elegans): 2.650%
percent (%) in vitro complex II activity relative to solvent control [2, 19]: 0.000% and 6.144% and 1.805%
percent (%) in vitro complex II activity relative to solvent control ([2]; dose 37.5 µM, Mean of replicates, wild-type C. elegans): 1.029%
percent (%) in vitro complex II activity relative to solvent control ([2]; dose 37.5 µM, individual replicates, wild-type C. elegans): 0.000% and 0.922% and 2.166%
percent (%) in vitro complex II activity relative to solvent control ([2]; dose 75 µM, Mean of replicates, wild-type C. elegans): 0.000%
percent (%) in vitro complex II activity relative to solvent control [2, 20]: 0.000%
IC50 [2]: 7.1 nM

Cc1cc(O)c2c(c1)O[C@@]1(C)CC[C@H]3C(C)(C)CCC[C@]34CO[C@@H]2[C@H]41 [Siccanin]
remaining activity at 0.0001 µM ([2]; dose 0.0001 µM, Mean of replicates, wild-type C. elegans, read-out: percent (%) in vitro complex II activity relative to solvent control): 103%
percent (%) in vitro complex II activity relative to solvent control [2, 6]: 101.370% and 113.242%
remaining activity at 0.0001 µM ([2]; dose 0.0001 µM, individual replicates, wild-type C. elegans, read-out: percent (%) in vitro complex II activity relative to solvent control): 95.2%
remaining activity at 0.0005 µM ([2]; dose 0.0005 µM, Mean of replicates, wild-type C. elegans, read-out: percent (%) in vitro complex II activity relative to solvent control): 104%
percent (%) in vitro complex II activity relative to solvent control [2, 7]: 86.897% and 113.059% and 111.964%
remaining activity at 0.001 µM ([2]; dose 0.001 µM, Mean of replicates, wild-type C. elegans, read-out: percent (%) in vitro complex II activity relative to solvent control): 84.8%
percent (%) in vitro complex II activity relative to solvent control [2, 8]: 69.310% and 87.306% and 97.900%
remaining activity at 0.0025 µM ([2]; dose 0.0025 µM, Mean of replicates, wild-type C. elegans, read-out: percent (%) in vitro complex II activity relative to solvent control): 76.6%
percent (%) in vitro complex II activity relative to solvent control [2, 9]: 54.828% and 79.635% and 95.343%
remaining activity at 0.005 µM ([2]; dose 0.005 µM, Mean of replicates, wild-type C. elegans, read-out: percent (%) in vitro complex II activity relative to solvent control): 64.8%
percent (%) in vitro complex II activity relative to solvent control [2, 10]: 62.831% and 72.146%
remaining activity at 0.005 µM ([2]; dose 0.005 µM, individual replicates, wild-type C. elegans, read-out: percent (%) in vitro complex II activity relative to solvent control): 59.3%
remaining activity at 0.013 µM ([2]; dose 0.013 µM, Mean of replicates, wild-type C. elegans, read-out: percent (%) in vitro complex II activity relative to solvent control): 42.5%
percent (%) in vitro complex II activity relative to solvent control [2, 11]: 45.480% and 44.018%
remaining activity at 0.013 µM ([2]; dose 0.013 µM, individual replicates, wild-type C. elegans, read-out: percent (%) in vitro complex II activity relative to solvent control): 37.9%
remaining activity at 0.025 µM ([2]; dose 0.025 µM, Mean of replicates, wild-type C. elegans, read-out: percent (%) in vitro complex II activity relative to solvent control): 27.5%
percent (%) in vitro complex II activity relative to solvent control [2, 12]: 28.128% and 27.763%
remaining activity at 0.025 µM ([2]; dose 0.025 µM, individual replicates, wild-type C. elegans, read-out: percent (%) in vitro complex II activity relative to solvent control): 26.6%
remaining activity at 0.063 µM ([2]; dose 0.063 µM, Mean of replicates, wild-type C. elegans, read-out: percent (%) in vitro complex II activity relative to solvent control): 13%
percent (%) in vitro complex II activity relative to solvent control [2, 13]: 17.717% and 11.872%
remaining activity at 0.063 µM ([2]; dose 0.063 µM, individual replicates, wild-type C. elegans, read-out: percent (%) in vitro complex II activity relative to solvent control): 9.48%
remaining activity at 0.125 µM ([2]; dose 0.125 µM, Mean of replicates, wild-type C. elegans, read-out: percent (%) in vitro complex II activity relative to solvent control): 9.4%
percent (%) in vitro complex II activity relative to solvent control [2, 14]: 1.897% and 15.890% and 10.411%
remaining activity at 0.313 µM ([2]; dose 0.313 µM, Mean of replicates, wild-type C. elegans, read-out: percent (%) in vitro complex II activity relative to solvent control): 6.54%
percent (%) in vitro complex II activity relative to solvent control [2, 15]: 4.655% and 12.968% and 2.009%
remaining activity at 0.625 µM ([2]; dose 0.625 µM, Mean of replicates, wild-type C. elegans, read-out: percent (%) in vitro complex II activity relative to solvent control): 3.28%
percent (%) in vitro complex II activity relative to solvent control [2, 16]: 3.621% and 6.210%
remaining activity at 1.5 µM ([2]; dose 1.5 µM, Mean of replicates, wild-type C. elegans, read-out: percent (%) in vitro complex II activity relative to solvent control): 9.39%
percent (%) in vitro complex II activity relative to solvent control [2, 17]: 5.345% and 10.046% and 12.785%
remaining activity at 3 µM ([2]; dose 3 µM, Mean of replicates, wild-type C. elegans, read-out: percent (%) in vitro complex II activity relative to solvent control): 3.77%
percent (%) in vitro complex II activity relative to solvent control [2, 18]: 3.448% and 7.854%
remaining activity at 15 µM ([2]; dose 15 µM, Mean of replicates, wild-type C. elegans, read-out: percent (%) in vitro complex II activity relative to solvent control): 1.28%
percent (%) in vitro complex II activity relative to solvent control [2, 19]: 1.461% and 2.374%
remaining activity at 37.5 µM ([2]; dose 37.5 µM, Mean of replicates, wild-type C. elegans, read-out: percent (%) in vitro complex II activity relative to solvent control): 0%
remaining activity at 37.5 µM ([2]; dose 37.5 µM, individual replicates, wild-type C. elegans, read-out: percent (%) in vitro complex II activity relative to solvent control): 0%
remaining activity at 75 µM ([2]; dose 75 µM, Mean of replicates, wild-type C. elegans, read-out: percent (%) in vitro complex II activity relative to solvent control): 1.83%
percent (%) in vitro complex II activity relative to solvent control [2, 20]: 5.480%
IC50 [2]: 10.7 nM
